Laboratory results taken from patent US5126356A, “Piperidine compounds” (Adir et Compagnie, priority 1989, dated 1992).

Assays:
5HT2 = 5HT2 (Homo sapiens, UniProt P28223); test: Binding to neurotransmitter receptors: 5HT2 ([3H] Ketanserine)
[1] = system: neurotransmitter receptors (5HT, α,β); test: Effect on neurotransmitter receptors (panel as a whole); type: binding; settings: exception of the dopaminergic receptors
Protocol: The competition experiments between the different radioligands and the reference molecules are carried out under the standard binding conditions according to O'BRIEN R. A., Receptor binding in drug research. In: Clinical Pharmacology, vol. 5, DEKKER M. Inc., New York and Basle (1986). In all cases, after the required linkage time, the bound radioactivity is separated from the free component by in vacuo filtration on a GF/C filter.

cardiac cells = test: Protection of cardiac cells from necrosis induced by intracellular acidosis (αHBDH release); type: cell-based, rat
Protocol: a) Cardiac cells: the cardiac cells are prepared from the hearts of newly born (3 days) Wistar rats in accordance with the technique of RENAUD JF., MEAUX JP., ROMEY G., SCHMID A., LAZDUNSKI M., Activation of the voltage-dependent Ca^2+ channels in rat heart cells by dihydropyridine derivative--Biochem. Biophys. Res. Commun., 125, 405-412 (1984).
The cardiomyocytes are isolated from the ventricles by enzymatic dissociation and cultured at 185,000 cells/cm^2. The cells are kept at 37° C. under an air/CO2 atmosphere (95 V/5 V) saturated with water. The cardiomyocytes are used between the 3rd and 8th day following culturing.
Intracellular acidosis is induced in accordance with the conditions published by RENAUD JF., Internal pH Na^+ and Ca^2+ regulation by trimetazidine during cardiac cell acidosis. Cardiovasc. Drugs and Ther., 1, 667-686 (1988) in the presence or absence of the products to be tested. Cellular necrosis is evaluated by measuring by spectrophotometry using the Boerhinger 124800 kit the kinetics of the release of a cytosolic enzyme α-hydroxybutyrate dehydrogenase (αHBDH) into the extracellular medium.
The signal measured corresponds to the amplitude of the necrosis induced by the acidosis. The values are the means ±SD. The number of experiments is indicated in parentheses.

Alpha adrenergic α2 = test: Binding to neurotransmitter receptors: alpha2 adrenergic ([3H] Rauwolscine); settings: α2, [3H] Rauwolscine; read-out: K0.5
Beta adrenergic β = test: Binding to neurotransmitter receptors: beta adrenergic ([3H] DHA); settings: read-out: K0.5
slow calcium channels = biological target: T1, slow calcium channels (Rattus norvegicus, UniProt P22002); test: Electrophysiology, whole cell patch clamp on A7 r5, slow calcium entry flow; type: cell-based
T1 construct: cell lines from the aorta of newly born rats; host or cells: A7 r5
T1 sequence (P22002 whole entry): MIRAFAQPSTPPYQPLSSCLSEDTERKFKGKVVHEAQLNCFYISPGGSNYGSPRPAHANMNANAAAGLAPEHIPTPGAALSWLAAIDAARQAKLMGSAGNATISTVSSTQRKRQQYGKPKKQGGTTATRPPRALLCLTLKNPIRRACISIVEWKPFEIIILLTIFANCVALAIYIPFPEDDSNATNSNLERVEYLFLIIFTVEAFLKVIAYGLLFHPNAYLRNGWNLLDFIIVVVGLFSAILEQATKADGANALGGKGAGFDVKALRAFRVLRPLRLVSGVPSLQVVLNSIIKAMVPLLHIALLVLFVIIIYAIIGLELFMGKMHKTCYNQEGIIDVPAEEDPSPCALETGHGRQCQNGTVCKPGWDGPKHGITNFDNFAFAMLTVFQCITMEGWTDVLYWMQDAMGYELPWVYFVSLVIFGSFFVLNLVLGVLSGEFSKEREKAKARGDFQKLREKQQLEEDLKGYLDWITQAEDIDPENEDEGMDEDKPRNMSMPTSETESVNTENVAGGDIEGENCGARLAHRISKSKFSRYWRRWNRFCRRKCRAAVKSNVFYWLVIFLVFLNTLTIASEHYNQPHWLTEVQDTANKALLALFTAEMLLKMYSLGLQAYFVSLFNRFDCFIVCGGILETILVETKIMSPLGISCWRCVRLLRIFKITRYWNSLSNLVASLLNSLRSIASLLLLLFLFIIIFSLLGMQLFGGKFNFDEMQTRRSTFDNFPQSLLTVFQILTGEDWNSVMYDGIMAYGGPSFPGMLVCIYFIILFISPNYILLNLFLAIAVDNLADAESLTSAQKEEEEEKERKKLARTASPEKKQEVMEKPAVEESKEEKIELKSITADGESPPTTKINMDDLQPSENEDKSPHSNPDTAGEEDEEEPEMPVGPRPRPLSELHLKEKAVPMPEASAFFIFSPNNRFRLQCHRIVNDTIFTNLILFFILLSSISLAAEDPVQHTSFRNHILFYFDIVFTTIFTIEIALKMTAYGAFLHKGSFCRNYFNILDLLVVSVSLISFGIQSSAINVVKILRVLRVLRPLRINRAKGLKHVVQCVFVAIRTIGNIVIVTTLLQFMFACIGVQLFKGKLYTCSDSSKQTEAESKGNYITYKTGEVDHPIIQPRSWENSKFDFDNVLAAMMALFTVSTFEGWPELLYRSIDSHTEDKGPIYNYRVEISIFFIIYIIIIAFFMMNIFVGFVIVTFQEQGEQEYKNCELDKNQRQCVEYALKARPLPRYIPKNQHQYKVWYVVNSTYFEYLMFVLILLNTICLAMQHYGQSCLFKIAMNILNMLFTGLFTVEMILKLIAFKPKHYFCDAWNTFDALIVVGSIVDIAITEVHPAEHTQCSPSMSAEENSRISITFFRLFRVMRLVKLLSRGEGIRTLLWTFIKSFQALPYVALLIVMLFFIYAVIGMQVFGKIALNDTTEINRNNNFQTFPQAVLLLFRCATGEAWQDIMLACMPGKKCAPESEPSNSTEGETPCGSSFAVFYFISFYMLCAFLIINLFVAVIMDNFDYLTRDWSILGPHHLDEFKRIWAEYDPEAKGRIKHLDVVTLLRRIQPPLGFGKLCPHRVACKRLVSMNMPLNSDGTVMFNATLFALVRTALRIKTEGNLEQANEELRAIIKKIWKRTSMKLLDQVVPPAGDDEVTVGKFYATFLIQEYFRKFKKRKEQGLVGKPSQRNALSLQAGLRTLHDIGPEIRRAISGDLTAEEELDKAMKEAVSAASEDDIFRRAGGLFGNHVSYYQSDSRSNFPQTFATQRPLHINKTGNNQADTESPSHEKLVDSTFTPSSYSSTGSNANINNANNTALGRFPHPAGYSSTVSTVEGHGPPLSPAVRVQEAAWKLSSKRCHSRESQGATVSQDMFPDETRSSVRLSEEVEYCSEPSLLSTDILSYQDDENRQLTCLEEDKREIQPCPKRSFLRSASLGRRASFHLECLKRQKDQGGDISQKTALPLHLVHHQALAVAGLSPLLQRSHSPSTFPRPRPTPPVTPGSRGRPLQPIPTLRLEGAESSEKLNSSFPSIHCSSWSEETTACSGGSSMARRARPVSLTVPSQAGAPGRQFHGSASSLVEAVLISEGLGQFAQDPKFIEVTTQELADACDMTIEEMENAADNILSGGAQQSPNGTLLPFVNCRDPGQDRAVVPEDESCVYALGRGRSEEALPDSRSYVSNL
T1 sequence (P54290 25-945 partner limits assumed): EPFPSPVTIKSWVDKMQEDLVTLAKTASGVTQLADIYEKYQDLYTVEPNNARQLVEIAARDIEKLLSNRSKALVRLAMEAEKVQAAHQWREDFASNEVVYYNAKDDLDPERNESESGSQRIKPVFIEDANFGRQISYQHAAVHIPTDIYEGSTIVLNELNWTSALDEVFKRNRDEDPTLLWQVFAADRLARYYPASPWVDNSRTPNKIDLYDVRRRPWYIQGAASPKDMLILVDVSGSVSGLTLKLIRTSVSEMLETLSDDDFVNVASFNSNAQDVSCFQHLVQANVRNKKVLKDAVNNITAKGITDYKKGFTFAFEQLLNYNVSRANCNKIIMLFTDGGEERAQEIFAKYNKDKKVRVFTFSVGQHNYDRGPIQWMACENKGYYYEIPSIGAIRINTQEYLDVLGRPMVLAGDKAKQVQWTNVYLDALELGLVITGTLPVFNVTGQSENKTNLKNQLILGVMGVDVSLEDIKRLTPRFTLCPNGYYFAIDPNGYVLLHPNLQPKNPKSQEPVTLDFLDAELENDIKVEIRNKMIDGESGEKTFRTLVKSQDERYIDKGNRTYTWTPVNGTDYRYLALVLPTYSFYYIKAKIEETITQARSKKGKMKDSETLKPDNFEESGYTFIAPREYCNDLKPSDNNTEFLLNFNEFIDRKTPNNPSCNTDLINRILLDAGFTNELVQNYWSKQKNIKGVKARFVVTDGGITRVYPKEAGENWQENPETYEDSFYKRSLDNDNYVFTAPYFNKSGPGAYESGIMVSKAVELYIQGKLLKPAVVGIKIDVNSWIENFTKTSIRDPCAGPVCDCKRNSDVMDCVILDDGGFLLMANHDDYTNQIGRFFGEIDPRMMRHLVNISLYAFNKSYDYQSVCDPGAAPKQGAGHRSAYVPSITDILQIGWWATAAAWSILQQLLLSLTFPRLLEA
T1 sequence (P54290 946-1091 partner limits assumed): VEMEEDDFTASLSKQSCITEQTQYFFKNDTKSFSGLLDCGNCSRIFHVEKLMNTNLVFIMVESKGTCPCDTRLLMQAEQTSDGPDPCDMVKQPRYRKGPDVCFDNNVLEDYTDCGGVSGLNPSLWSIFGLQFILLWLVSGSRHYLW
Protocol: b) A7 r5 : cell lines from the aorta of newly born rats (ATCC No. CRL 1444), cultivated under the conditions indicated by the American Type Culture Collection (ATCC).
The studies were carried out on the A7 r5 cell line using the whole cell patch-clamp technique described by HAMILL O., MARTY A., WEHER E., SAKMANN B., SIGWORTH F. F., Improved patch clamp techniques for high resolution current recording from cells and cell from membrane patches. Pflugers Arch., 391, 85-100 (1981).

5HT1A = biological target: T2, 5HT1A (Homo sapiens, UniProt P08908); test: Binding to neurotransmitter receptors: 5HT1A ([3H] 8 OH DPAT); settings: read-out: K0.5
T2 sequence (P08908 1-422): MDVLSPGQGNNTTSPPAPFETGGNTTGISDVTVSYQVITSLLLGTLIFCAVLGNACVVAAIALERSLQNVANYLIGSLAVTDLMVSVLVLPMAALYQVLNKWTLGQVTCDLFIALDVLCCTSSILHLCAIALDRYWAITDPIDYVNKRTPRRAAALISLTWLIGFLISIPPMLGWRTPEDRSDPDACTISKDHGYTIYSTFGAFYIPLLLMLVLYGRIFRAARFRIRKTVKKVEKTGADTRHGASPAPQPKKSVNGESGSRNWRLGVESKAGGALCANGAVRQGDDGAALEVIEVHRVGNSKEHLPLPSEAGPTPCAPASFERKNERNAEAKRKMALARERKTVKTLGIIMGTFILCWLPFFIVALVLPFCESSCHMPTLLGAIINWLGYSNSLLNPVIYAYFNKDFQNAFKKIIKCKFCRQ

Alpha adrenergic α1 = test: Binding to neurotransmitter receptors: alpha1 adrenergic ([3H] Prazosin); settings: α1, [3H] Prazosin; read-out: K0.5
type L calcium channels [2] = test: Binding: displacement of [3H] D888 at the Ca2+ channel; settings: read-out: K0.5 (50% of specifically fixed radioactivity displaced)
beagle dogs = test: Anti-ischaemic activity, Protocol 1: tight coronary stenosis in anaesthetised beagle dogs; type: in vivo, dog
Protocol: The studies are carried out on beagle dogs weighing from 9 to 12 kg which have been anaesthetised with pentobarbital sodium 30 mg/kg i.v., intubated and ventilated, and subjected to a thoracotomy at the 5th left intercostal space.
An electromagnetic ring connected to a Gould SP 2202 electromagnetic flow meter is placed around the circumflex branch of the left coronary artery, and an inflatable balloon is placed just downstream of that ring for the production of coronary stenoses under the control of the coronary output.
Piezoelectric crystals (5 MHz) connected to a Triton sonomicrometer are implanted in the subendocardium of the left ventricular wall, in an area that is to become ischaemic, for measuring local myocardial contractility; epicardial electrodes are placed in the same area for recording the epicardial electrocardiogram.
Myocardial ischaemia is induced by tight coronary stenosis that reduces coronary output by about 70%.
The same coronary stenosis, the effects of which are reversible and reproducible, is produced in the same animal for two periods of 10 minutes, separated by a recovery period of 45 minutes.
Treatments are administered intravenously 2 minutes after coronary stenosis:
injection of solvent after the first coronary stenosis, which serves as control,
injection of the test product after the second coronary stenosis.
Myocardial contractility is evaluated by the proportion of systolic shortening of the lengths of the segments between the piezoelectric crystals.
Hypokinesia in the ischaemic area is expressed as percentage variation relative to the contractility measured in the control period.
Modification of the epicardial ECG in the ischaemic area consists in raising the epicardial ST segment measured in millivolts (mV).

type L calcium channels [3] = biological target: T3, type L calcium channels (Oryctolagus cuniculus, UniProt P07293); test: Binding: displacement of [3H] PN 200-110 at the Ca2+ channel
T3 construct: microsomal fractions enriched with type L calcium channels; from tissue; host or cells: microsomal fractions

Dopamine D1 = Dopamine D1 (Homo sapiens, UniProt P21728); test: Binding to neurotransmitter receptors: D1 ([3H] SCH 23390); settings: read-out: K0.5
Chain of Dopamine D1 (P21728 whole entry): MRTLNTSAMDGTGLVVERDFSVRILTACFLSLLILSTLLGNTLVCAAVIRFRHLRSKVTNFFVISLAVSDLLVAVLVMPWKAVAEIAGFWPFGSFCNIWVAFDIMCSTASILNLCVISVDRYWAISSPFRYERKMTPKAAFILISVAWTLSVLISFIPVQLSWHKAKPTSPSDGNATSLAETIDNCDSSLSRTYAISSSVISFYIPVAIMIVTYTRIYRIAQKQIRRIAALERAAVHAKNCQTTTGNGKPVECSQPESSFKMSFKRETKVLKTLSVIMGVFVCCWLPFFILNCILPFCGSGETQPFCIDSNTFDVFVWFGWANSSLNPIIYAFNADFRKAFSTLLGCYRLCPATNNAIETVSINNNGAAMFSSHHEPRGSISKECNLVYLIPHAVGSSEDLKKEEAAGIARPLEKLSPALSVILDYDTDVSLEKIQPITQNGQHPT

type L Ca^2+ channel = biological target: T4, type L Ca^2+ channel (Rattus norvegicus, UniProt P22002); test: Inhibition of 45Ca2+ influx through the Ca2+ channel in A7 r5 cells; type: cell-based
T4 construct: cell lines from the aorta of newly born rats; host or cells: A7 r5
T4 sequence (P22002 whole entry): as the sequence (P22002 whole entry) above
T4 sequence (P54290 25-945 partner limits assumed): as the sequence (P54290 25-945 partner limits assumed) above
T4 sequence (P54290 946-1091 partner limits assumed): as the sequence (P54290 946-1091 partner limits assumed) above

Chain of 5HT2 (P28223 whole entry, species assumed): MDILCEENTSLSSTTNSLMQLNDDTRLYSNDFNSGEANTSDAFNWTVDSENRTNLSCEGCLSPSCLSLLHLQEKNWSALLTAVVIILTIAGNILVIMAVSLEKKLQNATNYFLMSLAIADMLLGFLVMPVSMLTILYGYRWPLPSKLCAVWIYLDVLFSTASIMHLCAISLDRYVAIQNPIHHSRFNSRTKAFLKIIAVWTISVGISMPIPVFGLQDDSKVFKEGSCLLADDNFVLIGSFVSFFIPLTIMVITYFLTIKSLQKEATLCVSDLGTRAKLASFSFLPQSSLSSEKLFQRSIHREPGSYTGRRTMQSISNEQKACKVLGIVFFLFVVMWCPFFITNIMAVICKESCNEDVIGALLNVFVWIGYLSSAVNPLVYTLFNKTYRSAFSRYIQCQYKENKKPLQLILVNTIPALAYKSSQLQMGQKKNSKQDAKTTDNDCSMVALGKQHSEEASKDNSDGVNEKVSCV

IC50 (5HT2): 1000 nM
IC50 (Alpha adrenergic α2): 900 nM
IC50 (Beta adrenergic β): 2000 nM
EC50 (slow calcium channels; whole cell patch clamp, A7 r5, read-out: semi-effect (EC50), inhibition of the slow calcium entry flow): 10000 nM
IC50 (5HT1A): 3000 nM
IC50 (Alpha adrenergic α1): 2000 nM
IC50 (type L calcium channels [2]): 1300 nM
IC50 (type L calcium channels [3]; [3H] PN 200-110, read-out: K0.5 (50% of specifically fixed radioactivity displaced)): 1000 nM
IC50 (Dopamine D1): 300 nM
inhibition of Ca2+ influx (in words) (type L Ca^2+ channel): inhibition of the influx of Ca^2+
IC50 (type L Ca^2+ channel; 45Ca2+ influx, A7 r5 cells, read-out: K0.5 (50% of 45Ca2+ influx inhibited)): 3000 nM
Compound: COc1ccc(CSC2CCN(CC=Cc3ccccc3)CC2)c(OC)c1OC [Example 1, 4-(2,3,4-trimethoxybenzylthio)-1-cinnamylpiperidine]
interaction with neurotransmitter receptors (in words) [1]: interacts in a relatively non-specific manner and with low affinity with neurotransmitter receptors (5HT, α,β) with the exception of the dopaminergic receptors
activity at 0.3 µM (cardiac cells; Rattus norvegicus, Cardiomyocyte, 0.3 μM, control after acidosis alone 100%, before acidosis 0%, mean ±SD, read-out: amplitude of the necrosis induced by the acidosis): 144%
activity at 1 µM (cardiac cells; Rattus norvegicus, Cardiomyocyte, 1 μM, control after acidosis alone 100%, mean ±SD, read-out: amplitude of the necrosis induced by the acidosis): 21.9%
activity at 3 µM (cardiac cells; Rattus norvegicus, Cardiomyocyte, 3 μM, control after acidosis alone 100%, mean ±SD, read-out: amplitude of the necrosis induced by the acidosis): 1.42%
activity at 10 µM (cardiac cells; Rattus norvegicus, Cardiomyocyte, 10 μM, control after acidosis alone 100%, mean ±SD, read-out: amplitude of the necrosis induced by the acidosis): 2.14%
activity at 30 µM (cardiac cells; Rattus norvegicus, Cardiomyocyte, 30 μM, control after acidosis alone 100%, mean ±SD, read-out: amplitude of the necrosis induced by the acidosis): 9.68%
minimal effective concentration (cardiac cells; Rattus norvegicus, 1 μM and above, read-out: concentration at which protection occurs): ≥ 1 µM
protection of cells with respect to intracellular acidosis (in words) (cardiac cells; in vitro): protects the cardiac cell from necrosis induced by intracellular acidosis
inhibition of slow calcium channels / Ca2+ entry flow (in words) (slow calcium channels): inhibition of the Ca^2+ entry flow in a dose-dependent manner
Contractility delta % (beagle dogs; 10 minutes after treatment, 1 mg/kg i.v., solvent -44.5): -24.3%
Epicardial ST delta mV (beagle dogs; 10 minutes after treatment, 1 mg/kg, solvent +4): +2 mV
Epicardial ST delta mV (beagle dogs; Stenosis (before treatment), 1 mg/kg group, solvent +4.5): +4.5 mV
Contractility delta % (beagle dogs; Stenosis (before treatment), 1 mg/kg i.v. group, solvent -45.8): -45%
anti-ischaemic effect (in words) (beagle dogs; intravenous, Protocols 1 and 2): markedly reduces both preventively and curatively the electrocardiographic modifications and the modifications of myocardial contractility induced by ischaemia
binding to the slow Ca2+ channel (in words) (type L calcium channels [3]): binds to the receptors of the slow Ca^2+ channel
